Reference: PubChem BioAssay (NCI)
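Tested at 5 concentrations; 48 h exposure; 96-well plates; endpoints linearly interpolated, else capped at highest concentration. TGI: concentration producing complete growth inhibition.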

Columns and labels:
Assay in all cases: NCI-60 cell line screen, 48 h
EKVX NSCLC = test system: EKVX NSCLC
LOX IMVI melanoma = test system: LOX IMVI melanoma
786-0 renal = test system: 786-0 renal
UACC-62 melanoma = test system: UACC-62 melanoma
XF 498 CNS = test system: XF 498 CNS
SNB-78 CNS = test system: SNB-78 CNS
MOLT-4 leukemia = test system: MOLT-4 leukemia
DMS 114 small cell lung = test system: DMS 114 small cell lung
A549 NSCLC = test system: A549 NSCLC
SNB-19 CNS = test system: SNB-19 CNS
SK-MEL-5 melanoma = test system: SK-MEL-5 melanoma
SW-620 colon = test system: SW-620 colon
HL-60(TB) leukemia = test system: HL-60(TB) leukemia
M19-MEL melanoma = test system: M19-MEL melanoma
NCI-H522 lung = test system: NCI-H522 lung
HOP-18 NSCLC = test system: HOP-18 NSCLC
SK-MEL-28 melanoma = test system: SK-MEL-28 melanoma
SN12C renal = test system: SN12C renal
RXF 393 renal = test system: RXF 393 renal
SF-539 CNS = test system: SF-539 CNS
M14 melanoma = test system: M14 melanoma
OVCAR-4 ovarian = test system: OVCAR-4 ovarian
SK-OV-3 ovarian = test system: SK-OV-3 ovarian
CAKI-1 renal = test system: CAKI-1 renal
NCI-H460 lung = test system: NCI-H460 lung
SNB-75 CNS = test system: SNB-75 CNS
RXF-631 renal = test system: RXF-631 renal
MALME-3M melanoma = test system: MALME-3M melanoma
OVCAR-3 ovarian = test system: OVCAR-3 ovarian
SF-295 CNS = test system: SF-295 CNS
RPMI-8226 leukemia = test system: RPMI-8226 leukemia
OVCAR-5 ovarian = test system: OVCAR-5 ovarian
TK-10 renal = test system: TK-10 renal
NCI-H23 lung = test system: NCI-H23 lung
HOP-92 NSCLC = test system: HOP-92 NSCLC
UO-31 renal = test system: UO-31 renal
U251 CNS = test system: U251 CNS
KM20L2 colon = test system: KM20L2 colon
OVCAR-8 ovarian = test system: OVCAR-8 ovarian
HCC-2998 colon = test system: HCC-2998 colon
KM12 colon = test system: KM12 colon
K-562 leukemia = test system: K-562 leukemia
SK-MEL-2 melanoma = test system: SK-MEL-2 melanoma
IGROV1 ovarian = test system: IGROV1 ovarian
HOP-62 NSCLC = test system: HOP-62 NSCLC
HCT-116 colon = test system: HCT-116 colon
HT29 colon = test system: HT29 colon
A498 renal = test system: A498 renal
UACC-257 melanoma = test system: UACC-257 melanoma
SF-268 CNS = test system: SF-268 CNS
DLD-1 colon = test system: DLD-1 colon
LXFL 529 NSCLC = test system: LXFL 529 NSCLC
COLO 205 colon = test system: COLO 205 colon
NCI-H226 lung = test system: NCI-H226 lung
CCRF-CEM leukemia = test system: CCRF-CEM leukemia
DMS 273 small cell lung = test system: DMS 273 small cell lung
ACHN renal = test system: ACHN renal
SR leukemia = test system: SR leukemia
HCT-15 colon = test system: HCT-15 colon

Which results are given for Nc1ccccc1C(=O)/C=C/c1ccccc1O?
TGI (EKVX NSCLC): > 100 µM; TGI (LOX IMVI melanoma): > 100 µM; TGI (786-0 renal): > 100 µM; TGI (UACC-62 melanoma): > 100 µM; TGI (XF 498 CNS): > 100 µM; TGI (SNB-78 CNS): > 100 µM; TGI (MOLT-4 leukemia): > 100 µM; TGI (DMS 114 small cell lung): > 100 µM; TGI (A549 NSCLC): > 100 µM; TGI (SNB-19 CNS): > 100 µM; TGI (SK-MEL-5 melanoma): > 100 µM; TGI (SW-620 colon): > 100 µM; TGI (HL-60(TB) leukemia): 58.8 µM; TGI (M19-MEL melanoma): > 100 µM; TGI (NCI-H522 lung): > 100 µM; TGI (HOP-18 NSCLC): > 100 µM; TGI (SK-MEL-28 melanoma): > 100 µM; TGI (SN12C renal): > 100 µM; TGI (RXF 393 renal): > 100 µM; TGI (SF-539 CNS): > 100 µM; TGI (M14 melanoma): > 100 µM; TGI (OVCAR-4 ovarian): > 100 µM; TGI (SK-OV-3 ovarian): > 100 µM; TGI (CAKI-1 renal): > 100 µM; TGI (NCI-H460 lung): > 100 µM; TGI (SNB-75 CNS): 68.9 µM; TGI (RXF-631 renal): > 100 µM; TGI (MALME-3M melanoma): > 100 µM; TGI (OVCAR-3 ovarian): > 100 µM; TGI (SF-295 CNS): > 100 µM; TGI (RPMI-8226 leukemia): 78.4 µM; TGI (OVCAR-5 ovarian): > 100 µM; TGI (TK-10 renal): > 100 µM; TGI (NCI-H23 lung): > 100 µM; TGI (HOP-92 NSCLC): 81.6 µM; TGI (UO-31 renal): > 100 µM; TGI (U251 CNS): > 100 µM; TGI (KM20L2 colon): > 100 µM; TGI (OVCAR-8 ovarian): > 100 µM; TGI (HCC-2998 colon): > 100 µM; TGI (KM12 colon): > 100 µM; TGI (K-562 leukemia): 93.4 µM; TGI (SK-MEL-2 melanoma): > 100 µM; TGI (IGROV1 ovarian): > 100 µM; TGI (HOP-62 NSCLC): > 100 µM; TGI (HCT-116 colon): > 100 µM; TGI (HT29 colon): > 100 µM; TGI (A498 renal): > 100 µM; TGI (UACC-257 melanoma): 53 µM; TGI (SF-268 CNS): > 100 µM; TGI (DLD-1 colon): > 100 µM; TGI (LXFL 529 NSCLC): > 100 µM; TGI (COLO 205 colon): > 100 µM; TGI (NCI-H226 lung): > 100 µM; TGI (CCRF-CEM leukemia): > 100 µM

Which results are given for COC(=O)N/N=C(\C)c1sc(-c2nc(C)c(/C(C)=N/NC(=O)OC)s2)nc1C?
TGI (EKVX NSCLC): > 100 µM; TGI (LOX IMVI melanoma): > 100 µM; TGI (786-0 renal): > 100 µM; TGI (UACC-62 melanoma): > 100 µM; TGI (DMS 273 small cell lung): > 100 µM; TGI (SNB-78 CNS): > 100 µM; TGI (ACHN renal): > 100 µM; TGI (MOLT-4 leukemia): > 100 µM; TGI (DMS 114 small cell lung): > 100 µM; TGI (A549 NSCLC): > 100 µM; TGI (SNB-19 CNS): > 100 µM; TGI (SK-MEL-5 melanoma): > 100 µM; TGI (HL-60(TB) leukemia): > 100 µM; TGI (M19-MEL melanoma): > 100 µM; TGI (SR leukemia): 45.7 µM; TGI (NCI-H522 lung): > 100 µM; TGI (HOP-18 NSCLC): > 100 µM; TGI (SK-MEL-28 melanoma): > 100 µM; TGI (SN12C renal): > 100 µM; TGI (RXF 393 renal): > 100 µM; TGI (SF-539 CNS): > 100 µM; TGI (M14 melanoma): > 100 µM; TGI (OVCAR-4 ovarian): > 100 µM; TGI (HCT-15 colon): > 100 µM; TGI (SK-OV-3 ovarian): > 100 µM; TGI (CAKI-1 renal): > 100 µM; TGI (NCI-H460 lung): > 100 µM; TGI (SNB-75 CNS): > 100 µM; TGI (RXF-631 renal): > 100 µM; TGI (MALME-3M melanoma): > 100 µM; TGI (OVCAR-3 ovarian): > 100 µM; TGI (SF-295 CNS): > 100 µM; TGI (RPMI-8226 leukemia): > 100 µM; TGI (OVCAR-5 ovarian): > 100 µM; TGI (TK-10 renal): > 100 µM; TGI (NCI-H23 lung): > 100 µM; TGI (HOP-92 NSCLC): > 100 µM; TGI (UO-31 renal): > 100 µM; TGI (U251 CNS): > 100 µM; TGI (KM20L2 colon): > 100 µM; TGI (OVCAR-8 ovarian): > 100 µM; TGI (HCC-2998 colon): > 100 µM; TGI (KM12 colon): > 100 µM; TGI (K-562 leukemia): > 100 µM; TGI (SK-MEL-2 melanoma): > 100 µM; TGI (IGROV1 ovarian): > 100 µM; TGI (HOP-62 NSCLC): > 100 µM; TGI (HCT-116 colon): > 100 µM; TGI (HT29 colon): > 100 µM; TGI (A498 renal): > 100 µM; TGI (UACC-257 melanoma): > 100 µM; TGI (SF-268 CNS): > 100 µM; TGI (DLD-1 colon): > 100 µM; TGI (LXFL 529 NSCLC): > 100 µM; TGI (COLO 205 colon): > 100 µM; TGI (NCI-H226 lung): > 100 µM; TGI (CCRF-CEM leukemia): > 100 µM
